Data published in patent US20230115208A1, “RING-FUSED THIAZOLINO 2-PYRIDONES, METHODS FOR PREPARATION THEREOF AND THEIR USE IN THE TREATMENT AND/OR PREVENTION OF TUBERCULOSIS” (QURETECH BIO AB, priority 2016, published 2023).

Test system: Mycobacterium tuberculosis Erdman
Experiment: Biofilm inhibition of Mycobacterium tuberculosis (ocular inspection)
Assay type: cell-based
Conditions: for inhibition at 10 µM / inhibition at 25 µM / inhibition at 50 µM / inhibition at 100 µM: biofilm inhibition, average of three or more measurements (100/50/0% scoring); for inhibition at 10 µM: read-out: Average % Inhibition at 10 μM; for inhibition at 25 µM: read-out: Average % Inhibition at 25 μM; for minimal effective concentration: concentration at which full biofilm inhibition took place, replicate determinations in one cell

Row | Compound | inhibition at 10 µM | inhibition at 25 µM | inhibition at 50 µM | minimal effective concentration | inhibition at 100 µM
1 | O=C(O)[C@@H]1CSc2c(C3CC3)c(Cc3cc4ccccc4s3)cc(=O)n21 [Example 2, (3R)-7-Cyclopropyl-4-oxo-6-{(7-thiabicyclo[4.3.0]nona-1,3,5,8-tetraen-8-yl)methyl}-1-thia-3a-aza-3-indancarboxylic acid] | 63% | 100% | 75% | 25 µM | –
2 | O=C(O)[C@@H]1CSc2c(C3CC3)c(Cc3ccc(F)c4ccccc34)cc(=O)n21 [Example 3, (3R)-7-Cyclopropyl-6-[(4-fluoro-1-naphthyl)methyl]-4-oxo-1-thia-3a-aza-3-indancarboxylic acid] | 100% | 100% | 100% | 50 µM | –
3 | Cc1ccc(Cc2cc(=O)n3c(c2C2CC2)SC[C@H]3C(=O)O)c2ccccc12 [Example 4, (3R)-7-Cyclopropyl-6-[(4-methyl-1-naphthyl)methyl]-4-oxo-1-thia-3a-aza-3-indancarboxylic acid] | 100% | 100% | 100% | 25 µM | –
4 | O=C(O)[C@H]1CSc2c(C3CC3)c(Cc3cccc4ccccc34)cc(=O)n21 [Example 5, (3S)-7-Cyclopropyl-6-[(1-naphthyl)methyl]-4-oxo-1-thia-3a-aza-3-indancarboxylic acid] | 100% | 100% | 100% | 5 µM | –
5 | O=C(O)c1c(-c2ccsc2)sc2c(C3CC3)c(Cc3cccc4ccccc34)cc(=O)n12 [Example 6, 5-Cyclopropyl-4-[(1-naphthyl)methyl]-2-oxo-8-(3-thienyl)-7-thia-1-azabicyclo[4.3.0]nona-3,5,8-triene-9-carboxylic acid] | 50% | 88% | 100% | 30 µM | 100%
6 | O=C(O)[C@@H]1CSc2c(C3CC3)c(COc3cccc4ccccc34)cc(=O)n21 [Example 7, (3R)-7-Cyclopropyl-6-[(1-naphthyloxy)methyl]-4-oxo-1-thia-3a-aza-3-indancarboxylic acid] | 50% | 100% | 100% | 25 µM | –
7 | Cc1ccc(F)c(Cc2cc(=O)n3c(c2C2CC2)SC[C@H]3C(=O)O)c1 [Example 8, (3R)-7-Cyclopropyl-6-[(2-fluoro-5-methyl-phenyl)methyl]-4-oxo-1-thia-3a-aza-3-indancarboxylic acid] | 75% | 63% | 75% | 25 µM | –
8 | Cc1cccc(Cc2cc(=O)n3c(c2C2CC2)SC[C@H]3C(=O)O)c1C [Example 9, (3R)-7-Cyclopropyl-4-oxo-6-[(2,3-xylyl)methyl]-1-thia-3a-aza-3-indancarboxylic acid] | 50% | 87% | 87% | 25 µM | –
9 | Cc1c(Cc2cccc3ccccc23)cc(=O)n2c1SC[C@H]2C(=O)O [Example 10, (3R)-7-Methyl-6-[(1-naphthyl)methyl]-4-oxo-1-thia-3a-aza-3-indancarboxylic acid] | 69% | 100% | 100% | – | –
10 | CON(C)C(=O)[C@@H]1CSc2c(C3CC3)c(Cc3cccc4ccccc34)cc(=O)n21 [Example 11, (N-Methylmethoxyamino){(3R)-7-cyclopropyl-6-[(1-naphthyl)methyl]-4-oxo-1-thia-3a-aza-3-indanyl}formaldehyde] | 75% | 38% | 88% | – | –
11 | O=c1cc(Cc2cccc3ccccc23)c(C2CC2)c2n1[C@H](c1nnn[nH]1)CS2 [Example 12, (3R)-7-Cyclopropyl-6-[(1-naphthyl)methyl]-3-(1H-1,2,3,4-tetrazol-5-yl)-1-thia-3a-aza-4-indanone] | 12% | 50% | 87% | – | –
12 | O=C(O)c1c(-c2ccccc2)sc2c(C3CC3)c(Cc3cccc4ccccc34)cc(=O)n12 [Example 13, 5-Cyclopropyl-4-[(1-naphthyl)methyl]-2-oxo-8-phenyl-7-thia-1-azabicyclo[4.3.0]nona-3,5,8-triene-9-carboxylic acid] | 62% | 75% | 100% | 50 µM | –
13 | Cc1cccc(-c2sc3c(C4CC4)c(Cc4cccc5ccccc45)cc(=O)n3c2C(=O)O)c1 [Example 14, 5-Cyclopropyl-4-[(1-naphthyl)methyl]-2-oxo-8-(m-tolyl)-7-thia-1-azabicyclo[4.3.0]nona-3,5,8-triene-9-carboxylic acid] | 0% | 88% | 100% | – | –
14 | O=C(O)[C@@H]1CSc2c(C3CC3)c(Cc3ccc4ccccc4c3)cc(=O)n21 [Example 15, (3R)-7-Cyclopropyl-6-[(2-naphthyl)methyl]-4-oxo-1-thia-3a-aza-3-indancarboxylic acid] | 87% | 100% | 100% | 50 µM | –
15 | O=c1cc(Cc2cccc3ccccc23)c(C2CC2)c2n1[C@H](CO)CS2 [Example 16, (3R)-7-Cyclopropyl-3-(hydroxymethyl)-6-[(1-naphthyl)methyl]-1-thia-3a-aza-4-indanone] | 25% | 62% | 100% | – | –
16 | O=C(O)[C@@H]1CSc2c(-c3cccs3)c(Cc3cccc4ccccc34)cc(=O)n21 [Example 17, (3R)-6-[(1-Naphthyl)methyl]-4-oxo-7-(2-thienyl)-1-thia-3a-aza-3-indancarboxylic acid] | 25% | 38% | 100% | 50 µM | –
17 | O=C(O)c1c(-c2c[nH]nn2)sc2c(C3CC3)c(Cc3cccc4ccccc34)cc(=O)n12 [Example 18, 5-Cyclopropyl-4-[(1-naphthyl)methyl]-2-oxo-8-(1H-1,2,3-triazol-4-yl)-7-thia-1-azabicyclo[4.3.0]nona-3,5,8-triene-9-carboxylic acid] | 12% | 12% | 38% | – | –
18 | O=C(O)c1c(Cc2ccccc2)sc2c(C3CC3)c(Cc3cccc4ccccc34)cc(=O)n12 [Example 19, 8-Benzyl-5-cyclopropyl-4-[(1-naphthyl)methyl]-2-oxo-7-thia-1-azabicyclo[4.3.0]nona-3,5,8-triene-9-carboxylic acid] | 0% | 0% | 88% | – | 100%
19 | O=C(O)[C@@H]1CSc2c(C3CC3)c(Cc3cccc(Cl)c3Cl)cc(=O)n21 [Example 20, (3R)-7-Cyclopropyl-6-[(2,3-dichlorophenyl)methyl]-4-oxo-1-thia-3a-aza-3-indancarboxylic acid] | 75% | 100% | 100% | 25 µM | –
20 | NC(=O)[C@@H]1CSc2c(C3CC3)c(Cc3cccc4ccccc34)cc(=O)n21 [Example 21, (3R)-7-Cyclopropyl-6-[(1-naphthyl)methyl]-4-oxo-1-thia-3a-aza-3-indancarboxamide] | 12% | 100% | 100% | – | –
21 | O=C(NS(=O)(=O)c1ccccc1)[C@@H]1CSc2c(C3CC3)c(Cc3cccc4ccccc34)cc(=O)n21 [Example 22, {(3R)-7-Cyclopropyl-6-[(1-naphthyl)methyl]-4-oxo-1-thia-3a-aza-3-indanyl}(phenylsulfonylamino)formaldehyde] | – | 38% | 25% | – | –
22 | CC(C)c1c(Cc2cccc3ccccc23)cc(=O)n2c1SC[C@H]2C(=O)O [Example 23, (3R)-7-Isopropyl-6-[(1-naphthyl)methyl]-4-oxo-1-thia-3a-aza-3-indancarboxylic acid] | – | 12% | 50% | – | –
23 | Cc1cc(=O)n2c(c1C1CC1)SC[C@H]2C(=O)O [Example 24, (3R)-7-Cyclopropyl-6-methyl-4-oxo-1-thia-3a-aza-3-indancarboxylic acid] | – | 12% | 62% | – | –
24 | O=C(O)[C@@H]1CSc2c(C3CC3)c(Cc3ccc(Cl)cc3)cc(=O)n21 [Example 25, (3R)-6-[(p-Chlorophenyl)methyl]-7-cyclopropyl-4-oxo-1-thia-3a-aza-3-indancarboxylic acid] | – | 12% | 50% | – | –
25 | CS(=O)(=O)NC(=O)[C@@H]1CSc2c(C3CC3)c(Cc3cccc4ccccc34)cc(=O)n21 [Example 26, {(3R)-7-Cyclopropyl-6-[(1-naphthyl)methyl]-4-oxo-1-thia-3a-aza-3-indanyl}(methylsulfonylamino)formaldehyde] | – | – | – | 50 µM | –
26 | Cc1cccc(Cc2cc(=O)n3c(c2C2CC2)SC[C@H]3C(=O)O)c1 [Example 27, (3R)-7-Cyclopropyl-4-oxo-6-[(m-tolyl)methyl]-1-thia-3a-aza-3-indancarboxylic acid] | 75% | 88% | 100% | 25 µM | –
27 | Cc1cccc(CCc2cc(=O)n3c(c2C(C)C)SC[C@H]3C(=O)O)c1 [Example 28, (3R)-7-Isopropyl-4-oxo-6-[2-(m-tolyl)ethyl]-1-thia-3a-aza-3-indancarboxylic acid] | – | – | – | 50 µM | –
28 | Cn1cc(-c2c(COc3cccc4ccccc34)cc(=O)n3c2SCC3C(=O)O)c2ccccc21 (stereo not drawn) [Example 29, 7-(1-Methyl-1H-indol-3-yl)-6-[(1-naphthyloxy)methyl]-4-oxo-1-thia-3a-aza-3-indancarboxylic acid] | – | – | – | 50 µM | –
29 | O=C(O)[C@@H]1CSc2c(C3CC3)c(Cc3ccc(Br)c4ccccc34)cc(=O)n21 [Example 30, (3R)-6-[(4-Bromo-1-naphthyl)methyl]-7-cyclopropyl-4-oxo-1-thia-3a-aza-3-indancarboxylic acid] | – | – | – | 50 µM | –
